Measured values published in PMC9601670, “Solubility Enhancement, Formulation Development, and Antibacterial Activity of Xanthan-Gum-Stabilized Colloidal Gold Nanogel of Hesperidin against Proteus vulgaris” (Gels, 2022).
Values after ≈ are worked out from the molar mass of the structure shown.

Experiments:
[1] = Solubility study of HSP (shake flask); format: physicochemical; settings: for Hesperidin Solubility: shaken 24 h, room temperature
Experimental: The solubility of HSP was determined by adopting the standard shake flask technique according to the method described by Majumdar and colleagues. The screening of the solution was performed by evaluating the solubility of HSP (10% (w/v) with respect to pH solution. To perform this experiment, 10% w/v of HSP was added to a glass vial containing 5 mL of the chosen solvent and tightly sealed. To ensure homogeneous mixing, the samples were shaken continuously for 24 h in a water bath at room temperature and 50 rpm. After 24 h, samples were centrifuged at 4500 rpm and HSP was assayed in the supernatant. Solubility was determined in water and in buffers with pH values ranging from 1.2 to 6.8. In addition, the effect of XA-stabilized AuNPs on the solubility of hesperidin was examined to determine by how much the solubility was increased.

[2] = system: Proteus vulgaris (MTCC 7299); assay: Minimum inhibitory concentration (microtiter plate dilution); format: cell-based; settings: P. vulgaris MTCC 7299, 37 °C, 24 h, absorbance 640 nm; method: concentration that inhibited 50% of bacterial growth
Experimental: Briefly, stock solutions of XA@AuNPs gel and HSP@XA@AuNPs gel were prepared in water to ensure complete solubilization at a concentration of 1 mg/mL. A total of 100 µL of nutrient broth and Sabouraud dextrose broth was added to wells 1 to 10. XA@AuNPs gel and HSP@XA@AuNPs gel samples (100 µL) were added to the first well. The solution was serially diluted from well 1 to well 10, while 100 µL from well 10 was discarded. Then 100 µL of the bacterial suspension was added to all dilution wells from well 1 to well 10. The overnight bacterial suspension (100 µL) was added to well 11, and 100 µL of sterile broth was added to serve as a positive control or growth control, while 200 µL of sterile nutrient broth and Sabouraud dextrose broth in well 12 served as a negative control or sterility control. The plate was incubated at 37 °C for 24 h. After incubation, absorbance in each well was measured using an ELISA reader (Erba) at a wavelength of 640 nm. The procedure described above was performed for each microbial strain. The concentration of the sample and standard that inhibited 50% of bacterial growth was determined for all microorganisms. All tests were performed in triplicate to minimize error.

SMILES: COc1ccc([C@@H]2CC(=O)c3c(O)cc(O[C@@H]4O[C@H](CO[C@@H]5O[C@@H](C)[C@H](O)[C@@H](O)[C@H]5O)[C@@H](O)[C@H](O)[C@H]4O)cc3O2)cc1O [HSP, hesperidin]
- Hesperidin Solubility ([1]; Water): 4.09 ± 0.20 µg/mL
- Hesperidin Solubility ([1]; XA-stabilized AuNPs as solvent): 62.23 ± 3.1 µg/mL
- Solubility increase by addition of XA-stabilized AuNPs compared to water ([1]; XA-stabilized AuNPs vs water): 15 fold
- Hesperidin Solubility ([1]; pH 1.2 buffer): 2.44 ± 0.12 µg/mL
- Hesperidin Solubility ([1]; pH 5.0 buffer): 3.42 ± 0.17 µg/mL
- Hesperidin Solubility ([1]; pH 6.8 buffer): 6.19 ± 0.30 µg/mL
- MIC [2]: 9.2 mg/L (≈ 15.1 µM)
